For one assay, the target named is T1, PI3K-alpha (Homo sapiens, UniProt P42336).
T1 construct: purchased Upstate; Millipore 14-602
Nature of the assay: HTRF PI3K biochemical assay, alpha isoform. The following applies: ratio PI3K-alpha IC50 value / PI3K-delta IC50 value.

The target in a further assay is T2, PI3K-delta (Homo sapiens, UniProt O00329).
T2 construct: purchased Upstate; Millipore 14-604
The assay is described as follows: HTRF PI3K biochemical assay, delta isoform. As to conditions: form screened (neutral or TFA salt) given, read-out: PI3Kdelta IC50.

The structures appear in SMILES notation.

T1 sequence (P42336 whole entry): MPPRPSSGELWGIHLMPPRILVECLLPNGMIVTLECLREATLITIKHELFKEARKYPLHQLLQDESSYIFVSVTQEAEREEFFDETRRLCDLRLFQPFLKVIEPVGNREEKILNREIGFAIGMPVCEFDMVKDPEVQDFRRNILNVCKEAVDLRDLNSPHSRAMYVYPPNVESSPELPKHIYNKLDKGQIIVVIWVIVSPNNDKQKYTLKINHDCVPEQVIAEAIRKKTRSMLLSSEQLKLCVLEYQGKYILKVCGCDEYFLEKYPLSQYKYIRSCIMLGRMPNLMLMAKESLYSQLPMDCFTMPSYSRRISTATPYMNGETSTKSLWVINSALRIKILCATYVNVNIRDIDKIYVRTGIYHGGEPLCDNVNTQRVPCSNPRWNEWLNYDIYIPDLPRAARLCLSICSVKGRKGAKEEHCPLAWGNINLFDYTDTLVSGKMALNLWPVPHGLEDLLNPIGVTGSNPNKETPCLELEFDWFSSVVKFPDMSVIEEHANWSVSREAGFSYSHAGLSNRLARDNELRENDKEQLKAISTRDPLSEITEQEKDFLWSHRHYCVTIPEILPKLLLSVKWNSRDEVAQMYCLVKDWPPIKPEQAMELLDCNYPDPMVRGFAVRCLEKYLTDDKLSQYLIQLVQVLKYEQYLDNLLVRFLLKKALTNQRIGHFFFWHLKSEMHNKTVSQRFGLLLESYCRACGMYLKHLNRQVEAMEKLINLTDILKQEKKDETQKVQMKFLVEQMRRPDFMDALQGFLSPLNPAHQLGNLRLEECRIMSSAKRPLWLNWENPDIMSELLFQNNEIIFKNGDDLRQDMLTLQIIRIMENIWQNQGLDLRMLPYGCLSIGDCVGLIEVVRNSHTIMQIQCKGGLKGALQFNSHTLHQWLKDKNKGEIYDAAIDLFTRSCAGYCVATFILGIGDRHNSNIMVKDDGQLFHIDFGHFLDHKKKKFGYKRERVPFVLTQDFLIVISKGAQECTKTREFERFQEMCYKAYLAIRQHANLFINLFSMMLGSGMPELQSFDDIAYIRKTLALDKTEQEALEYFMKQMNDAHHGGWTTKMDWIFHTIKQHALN
T1 sequence (P27986 whole entry partner): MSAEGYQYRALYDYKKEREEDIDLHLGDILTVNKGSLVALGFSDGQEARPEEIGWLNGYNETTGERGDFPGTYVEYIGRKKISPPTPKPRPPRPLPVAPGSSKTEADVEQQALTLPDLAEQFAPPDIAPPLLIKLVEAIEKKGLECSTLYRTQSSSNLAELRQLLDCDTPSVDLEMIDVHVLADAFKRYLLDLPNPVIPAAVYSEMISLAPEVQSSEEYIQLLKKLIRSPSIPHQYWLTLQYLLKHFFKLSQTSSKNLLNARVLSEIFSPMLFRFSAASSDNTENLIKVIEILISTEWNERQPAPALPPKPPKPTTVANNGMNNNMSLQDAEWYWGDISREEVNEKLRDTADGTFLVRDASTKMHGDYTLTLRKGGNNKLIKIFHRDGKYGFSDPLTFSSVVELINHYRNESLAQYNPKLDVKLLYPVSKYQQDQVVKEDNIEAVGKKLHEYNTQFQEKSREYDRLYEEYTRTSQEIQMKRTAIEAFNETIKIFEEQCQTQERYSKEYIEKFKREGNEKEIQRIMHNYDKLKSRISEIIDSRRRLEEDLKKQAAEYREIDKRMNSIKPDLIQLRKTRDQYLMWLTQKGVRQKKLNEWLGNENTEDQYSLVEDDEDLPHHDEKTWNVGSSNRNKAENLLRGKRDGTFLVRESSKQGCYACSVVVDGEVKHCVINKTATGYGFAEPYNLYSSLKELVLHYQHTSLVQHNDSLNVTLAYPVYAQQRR
T2 sequence (O00329 whole entry): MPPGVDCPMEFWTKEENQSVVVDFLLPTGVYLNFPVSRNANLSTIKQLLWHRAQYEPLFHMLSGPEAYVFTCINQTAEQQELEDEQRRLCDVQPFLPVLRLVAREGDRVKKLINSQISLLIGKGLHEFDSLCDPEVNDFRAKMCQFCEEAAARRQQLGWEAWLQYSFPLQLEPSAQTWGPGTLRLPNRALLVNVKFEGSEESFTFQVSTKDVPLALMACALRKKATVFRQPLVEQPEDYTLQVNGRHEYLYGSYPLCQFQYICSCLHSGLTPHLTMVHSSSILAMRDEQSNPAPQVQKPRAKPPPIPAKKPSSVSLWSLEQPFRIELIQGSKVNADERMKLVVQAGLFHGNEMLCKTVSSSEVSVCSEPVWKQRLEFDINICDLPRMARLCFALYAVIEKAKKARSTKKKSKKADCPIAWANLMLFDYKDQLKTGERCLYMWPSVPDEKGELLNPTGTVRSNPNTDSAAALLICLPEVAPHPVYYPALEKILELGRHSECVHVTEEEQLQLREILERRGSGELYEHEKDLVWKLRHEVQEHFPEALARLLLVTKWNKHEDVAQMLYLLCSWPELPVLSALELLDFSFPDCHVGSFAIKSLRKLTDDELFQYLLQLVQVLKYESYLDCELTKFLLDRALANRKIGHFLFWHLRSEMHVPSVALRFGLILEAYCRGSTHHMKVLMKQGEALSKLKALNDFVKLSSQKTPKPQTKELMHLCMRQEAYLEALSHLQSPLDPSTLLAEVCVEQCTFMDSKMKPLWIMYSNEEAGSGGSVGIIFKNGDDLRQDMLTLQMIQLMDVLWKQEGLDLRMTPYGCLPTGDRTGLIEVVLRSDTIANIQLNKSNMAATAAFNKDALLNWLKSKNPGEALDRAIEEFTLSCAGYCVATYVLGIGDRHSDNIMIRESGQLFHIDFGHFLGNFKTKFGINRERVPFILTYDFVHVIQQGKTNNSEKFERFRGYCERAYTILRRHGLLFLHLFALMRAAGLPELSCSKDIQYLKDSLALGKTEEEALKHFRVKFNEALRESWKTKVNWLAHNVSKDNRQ
T2 sequence (P27986 whole entry partner): as the sequence (P27986 whole entry partner) above

On to `CCn1c(-c2cnc(C)nc2)nc2c(N[C@@H]3CN(C(=O)C4CC4)C[C@H]3O)ncnc21` (racemic) [Compound 2-96, 1-(cyclopropylcarbonyl)-4-{(3R,4R) and (3S,4S)-[9-ethyl-8-(2-methylpyrimidin-5-yl)-9H-purin-6-yl]amino}pyrrolidin-3-ol], for which the “Selectivity versus PI3Kalpha” value on PI3K-alpha is more than 10. Further, the IC50 on PI3K-delta stood at 6 nM.

For the compound `CCn1c(-c2cnc(C)nc2)nc2c(NC3CN(C(=O)C4CC4)CC3F)ncnc21` (racemic) [Compound 3-26, N-[(3R,4S and 3S,4R)-1-(cyclopropylcarbonyl)-4-fluoropyrrolidin-3-yl]-9-ethyl-8-(2-methylpyrimidin-5-yl)-9H-purin-6-amine], the “Selectivity versus PI3Kalpha” value at PI3K-alpha was more than 10. Besides, the IC50 at PI3K-delta came to 34 nM.

For the compound `CCn1c(-c2cnc(OC)c(Cl)c2)nc2c(N[C@H]3CCN(C(=O)C4CC4)C3)ncnc21` [Compound 3-25, 8-(5-chloro-6-methoxypyridin-3-yl)-N-[(3S)-1-(cyclopropylcarbonyl)pyrrolidin-3-yl]-9-ethyl-9H-purin-6-amine], at PI3K-alpha, the “Selectivity versus PI3Kalpha” value was more than 10. For the same compound, at PI3K-delta, the IC50 was less than 1 nM.

Take `CCn1c(-c2cnc(C)nc2)nc2c(N[C@H]3CCN(C(=O)CC(C)(C)O)C3)ncnc21` [Compound 2-30, 4-[(3S)-3-{[9-ethyl-8-(2-methylpyrimidin-5-yl)-9H-purin-6-yl]amino}pyrrolidin-1-yl]-2-methyl-4-oxobutan-2-ol]: the “Selectivity versus PI3Kalpha” value on PI3K-alpha was more than 10. Besides, the IC50 at PI3K-delta is 15 nM.

Take `CCn1c(-c2cnc(C)nc2)nc2c(NC3CN(C(=O)C4CC4)CC3(F)F)ncnc21` (single isomer, unassigned) [Compound 2-26, N-[(3S or 3R)-1-(cyclopropylcarbonyl)-4,4-difluoropyrrolidin-3-yl]-9-ethyl-8-(2-methylpyrimidin-5-yl)-9H-purin-6-amine]: the “Selectivity versus PI3Kalpha” value at PI3K-alpha is on record as more than 10. The IC50 on PI3K-delta came out at 10 nM.

Turning to `CCn1c(-c2cnc(C)nc2)nc2c(N[C@H]3CCN(C(=O)NC4CCCCC4)C3)ncnc21` [Compound 12-16, (3S)-N-cyclohexyl-3-{[9-ethyl-8-(2-methylpyrimidin-5-yl)-9H-purin-6-yl]amino}pyrrolidine-1-carboxamide], the “Selectivity versus PI3Kalpha” value at PI3K-alpha was more than 10. In addition, on PI3K-delta, the IC50 was 16 nM.

On to `CCn1c(-c2cnc(C)nc2)nc2c(N[C@H]3CCN(C(=O)NC4CCC4)C3)ncnc21` [Compound 12-22, (3S)-N-cyclobutyl-3-{[9-ethyl-8-(2-methylpyrimidin-5-yl)-9H-purin-6-yl]amino}pyrrolidine-1-carboxamide], for which the “Selectivity versus PI3Kalpha” value at PI3K-alpha is given as more than 10. The IC50 on PI3K-delta turned out to be 5.3 nM.

Consider `CCn1c(C(=O)NCC(F)(F)F)nc2c(N[C@H]3CCN(C(=O)C4CC4)C3)ncnc21` [Compound 6-3, 6-{[(3S)-1-(cyclopropylcarbonyl)pyrrolidin-3-yl]amino}-9-ethyl-N-(2,2,2-trifluoroethyl)-9H-purine-8-carboxamide], for which the “Selectivity versus PI3Kalpha” value at PI3K-alpha was more than 10. Besides, the IC50 on PI3K-delta was 6.7 nM.

For `CCn1c(C(=O)N(C)CC(F)(F)F)nc2c(N[C@H]3CCN(C(=O)C4CC4)C3)ncnc21` [Compound 6-15, 6-{[(3S)-1-(cyclopropylcarbonyl)pyrrolidin-3-yl]amino}-9-ethyl-N-methyl-N-(2,2,2-trifluoroethyl)-9H-purine-8-carboxamide], the “Selectivity versus PI3Kalpha” value at PI3K-alpha is more than 10. Also, the IC50 at PI3K-delta came out at 230 nM.

Regarding `CCn1c(C(F)F)nc2c(N[C@H]3CCN(C(=O)[C@H]4C[C@@H](OC)C4)C3)ncnc21` [Compound 7-18, 8-(difluoromethyl)-9-ethyl-N-{(3S)-1-[(cis-3-methoxycyclobutyl)carbonyl]pyrrolidin-3-yl}-9H-purin-6-amine], the “Selectivity versus PI3Kalpha” value at PI3K-alpha is more than 10. Moreover, on PI3K-delta, the IC50 amounted to 11 nM.

Take `CCn1c(-c2cnc(C)nc2)nc2c(N[C@H]3CCN(C(=O)C4CC(=O)N(C(C)C)C4)C3)ncnc21` (mixture of isomers) [Compound 2-81, (R and S)-4-{[(3S)-3-{[9-ethyl-8-(2-methylpyrimidin-5-yl)-9H-purin-6-yl]amino}pyrrolidin-1-yl]carbonyl}-1-(1-methylethyl)pyrrolidin-2-one]: the “Selectivity versus PI3Kalpha” value at PI3K-alpha is reported as more than 10. Also, the IC50 at PI3K-delta came to 13 nM.

For `CCc1ccnc(N2CC[C@H](Nc3ncnc4c3nc(-c3cnc(C)nc3)n4CC)C2)c1` [Compound 4-6, 9-ethyl-N-[(3S)-1-(4-ethylpyridin-2-yl)pyrrolidin-3-yl]-8-(2-methylpyrimidin-5-yl)-9H-purin-6-amine], the “Selectivity versus PI3Kalpha” value at PI3K-alpha is more than 10. The IC50 on PI3K-delta was determined as 4.7 nM.

On to `CCC(=O)N1CC[C@H](Nc2ncnc3c2nc(-c2cnc(C(C)(C)C)s2)n3C)C1` [Compound 2-14, (S)-1-(3-((8-(2-(tert-butyl)thiazol-5-yl)-9-methyl-9H-purin-6-yl)amino)pyrrolidin-1-yl)propan-1-one], for which the “Selectivity versus PI3Kalpha” value at PI3K-alpha was more than 10. Besides, the IC50 on PI3K-delta came out at 1.2 nM.

As for `CCn1c(-c2cnc(C)nc2)nc2c(N[C@H]3CCN(C(=O)c4cnn(C)c4)C3)ncnc21` [Compound 2-73, 9-ethyl-N-{(3S)-1-[(1-methyl-1H-pyrazol-4-yl)carbonyl]pyrrolidin-3-yl}-8-(2-methylpyrimidin-5-yl)-9H-purin-6-amine], the “Selectivity versus PI3Kalpha” value at PI3K-alpha is more than 10. For the same compound, on PI3K-delta, the IC50 came out at 4.2 nM.

Consider `CCn1c(-n2cnc3ccccc32)nc2c(N[C@H]3CCN(C(=O)C4CC4)C3)ncnc21` [Compound 8-2, 8-(1H-benzimidazol-1-yl)-N-[(3S)-1-(cyclopropylcarbonyl)pyrrolidin-3-yl]-9-ethyl-9H-purin-6-amine], for which, on PI3K-alpha, the “Selectivity versus PI3Kalpha” value was more than 10. For the same compound, the IC50 on PI3K-delta was less than 1 nM.

These data come from US9938281B2 (Merck Sharp & Dohme Corp., priority 2012, dated 2018).
